{"source": "BindingDB's records for doi:10.1016/j.ejmech.2019.111626", "about": "(University of Illinois At Chicago, 2019)", "molecular_target": "5-hydroxytryptamine receptor 2A (Homo sapiens, UniProt P28223)", "sequence (P28223 whole entry)": "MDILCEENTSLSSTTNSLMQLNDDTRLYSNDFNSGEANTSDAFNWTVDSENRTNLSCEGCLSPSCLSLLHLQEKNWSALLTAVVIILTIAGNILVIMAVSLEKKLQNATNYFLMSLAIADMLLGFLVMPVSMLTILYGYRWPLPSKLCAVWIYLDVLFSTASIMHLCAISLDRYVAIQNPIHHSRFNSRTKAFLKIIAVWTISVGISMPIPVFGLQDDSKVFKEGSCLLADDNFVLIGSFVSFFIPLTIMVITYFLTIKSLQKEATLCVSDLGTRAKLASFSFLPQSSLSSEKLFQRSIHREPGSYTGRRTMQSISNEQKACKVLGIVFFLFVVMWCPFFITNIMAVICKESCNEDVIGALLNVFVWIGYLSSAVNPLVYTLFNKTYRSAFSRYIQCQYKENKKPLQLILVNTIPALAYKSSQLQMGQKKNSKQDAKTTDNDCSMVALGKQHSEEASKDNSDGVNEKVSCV", "experiment": "Agonist activity at recombinant human 5HT2A receptor expressed in Flp-In-293 cells assessed as increase in calcium influx measured for 300 secs by Fluo-4 dye based FLIPR assay", "data": [{"compound": "NC[C@H]1C[C@]1(F)c1cccc(F)c1", "values": [{"measurement": "EC50", "value": 2.69, "unit": "nM"}]}]}
